Measurements published in patent US20220340579A1, “PYRAZOLYL BICYCLIC AMINES AS CDK2 INHIBITORS” (Incyte Corporation, priority 2021, published 2022).

Target: T1, CDK2/Cyclin E1 (Homo sapiens, UniProt P24941)
T1 construct: enzyme activity assays utilize full-length human CDK2; GST (N); purchased Carna 04-165; host or cells: baculovirus expression system
Experiment: CDK2/Cyclin E1 HTRF enzyme activity assay
Format: biochemical
Settings: 1 mM ATP
Procedure: Example A. CDK2/Cyclin E1 HTRF Enzyme Activity Assay
CDK2/Cyclin E1 enzyme activity assays utilize full-length human CDK2 co-expressed as N-terminal GST-tagged protein with FLAG-Cyclin E1 in a baculovirus expression system (Carna Product Number 04-165). Assays were conducted in white 384-well polystyrene plates in a final reaction volume of 8 μL. CDK2/Cyclin E1 (0.25 nM) was incubated with the compounds of the Examples (40 nL serially diluted in DMSO) in the presence of ATP (50 μM or 1 mM) and 50 nM ULight™-labeled eIF4E-binding protein 1 (THR37/46) peptide (PerkinElmer) in assay buffer (containing 50 mM HEPES pH 7.5, 1 mM EGTA, 10 mM MgCl2, 2 mM DTT, 0.05 mg/mL BSA, and 0.01% Tween 20) for 60 minutes at room temperature. The reactions were stopped by the addition of EDTA and Europium-labeled anti-phospho-4E-BP1 antibody (PerkinElmer), for a final concentration of 15 mM and 1.5 nM, respectively. HTRF signals were read after 1 hour at room temperature on a PHERAstar FS plate reader (BMG Labtech). Data was analyzed with IDBS XLFit and GraphPad Prism 5.0 software using a three or four parameter dose response curve to determine IC50 for each compound.

IC50 [nM]	Structure (SMILES)
≤ 10	C[C@@H]1CN(S(C)(=O)=O)CC[C@@H]1Nc1nc2c(OCC(F)(F)F)c(-c3cn[nH]c3)ncn2n1 [Example 2, N-((3R,4S)-3-Methyl-1-(methylsulfonyl)piperidin-4-yl)-7-(1H-pyrazol-4-yl)-8-(2,2,2-trifluoroethoxy)-[1,2,4]triazolo[1,5-c]pyrimidin-2-amine]
≤ 10	C[C@@H]1CN(S(C)(=O)=O)CC[C@@H]1Nc1nc2cnc(-c3cn[nH]c3)c(OCC(F)(F)F)n2n1 [Example 3, N-((3R,4S)-3-Methyl-1-(methylsulfonyl)piperidin-4-yl)-6-(1H-pyrazol-4-yl)-5-(2,2,2-trifluoroethoxy)-[1,2,4]triazolo[1,5-a]pyrazin-2-amine]

Structure (SMILES)	IC50 [nM]
C[C@@H]1CN(S(C)(=O)=O)CC[C@@H]1Nc1nc2c(OC3CCC3)c(-c3cn[nH]c3)ncn2n1 [Example 1, 8-Cyclobutoxy-N-((3R,4S)-3-methyl-1-(methylsulfonyl)piperidin-4-yl)-7-(1H-pyrazol-4-yl)-[1,2,4]triazolo[1,5-c]pyrimidin-2-amine]	≤ 10
